# Patent publication US12630829B2, “Gene encoding cytochrome P450 and use thereof” (KUMIAI CHEMICAL INDUSTRY CO., LTD., priority 2020, dated 2026)
# Columns and labels:
# [1] = tested on: KJ541960 (wheat-derived P450) co-expressed with TaCPR; test: In vitro drug metabolism test of KJ541960 protein against fenquinotrione; type: in vitro ADME; settings: test method and conditions of Example 1; KJ541960 reaction plot
# Experimental: (§1) It was verified by in vitro metabolism test whether or not a novel wheat-derived P450 of AK454412 is involved in herbicide metabolism. As a compound having high safety against wheat, fenquinotrione was used. […] A solution after completing the enzymatic reaction was centrifuged at 15,000 rpm for 1 minute, and the obtained supernatant was filtered through a 0.45 μm filter and then tested by LC/MS. LC/MS conditions were as follows:
# Therefore, synthesis of an artificial gene of the KJ541960 gene was requested of Eurofins Genomics K.K. Here, NdeI and EcoRI sites were respectively added to the 5′ and 3′ terminals of the CDS sequence of the gene. A DNA fragment of the KJ541960 gene was cleaved through NdeI/EcoRI treatment from the synthesized pEX-A2J2-KJ541960 plasmid, and was linked to pET-22b(+) vector, similarly having been subjected to NdeI/EcoRI treatment, with Ligation-Convenience Kit, and thus pET-22b-KJ541960 was produced (FIG. 13). […]
# It is noted that the KJ541960 gene, synthesized as the artificial gene, was set to encode an amino acid sequence, in which a membrane anchoring region of the 35 N-terminal amino acid residues was removed, and the 6β sequence (MAKKTSS) was added as the same conditions as in the AK454412 gene. […] Besides, the intensity of the peak of the detected demethylated product was substantially the same in both the reaction plots. […]
# [2] = tested on: AK369081 (barley-derived P450) co-expressed with TaCPR; test: In vitro drug metabolism test of AK369081 protein against fenquinotrione; type: in vitro ADME; settings: test method and conditions of Example 1; AK369081 reaction plot
# Experimental: as §1
# Specifically, in the same manner as in KJ541960, recombinant proteins of these genes were prepared to evaluate, by in vitro test, whether or not these have fenquinotrione metabolic activity. First, an expression vector was designed by inserting, between NdeI and EcoRI sites of pET-22b(+), a nucleotide sequence, which encoded a sequence obtained by removing the transmembrane region (AK375492: 35 N-terminal amino acid residues, AK369081: 37 N-terminal amino acid residues) of each of the genes of Accession Nos. AK375492 and AK369081, and adding the 6β sequence (MAKKTSS) to the N-terminal, and synthesis of artificial genes was requested of GenScript. Each of the synthesized expression vectors (6β AK375492 in pET-22b, 6β AK369081 in pET-22b) was co-introduced, together with pACYC-del31_TaCPR, into E. coli BL21 star (DE3) strain for protein expression (FIG. 15). […]
smiles,measurement,setting,value
COc1ccc(-n2c(=O)c(C(=O)C3C(=O)CCCC3=O)nc3c(Cl)cccc32)cc1 [fenquinotrione],metabolism of fenquinotrione (production of demethylated product as index),[1],"a parent peak of fenquinotrione was reduced, and a peak of the demethylated product appeared"
same,metabolism of fenquinotrione (generation of demethylated product as index),[2],a peak of the demethylated product (RT=in the vicinity of 15.1) appeared
